Data as given in US9809592B2, “Isopropyl triazolo pyridine compounds” (Eli Lilly and Company, priority 2014, dated 2017).
pEC50, pKi: −log10 of the molar value.

How the values were obtained:
Human GPR40 membranes = target: T1, Human GPR40 membranes (Homo sapiens, UniProt O14842); experiment: Competition binding kinetics, receptor residence time; conditions: 6-8 nM [3H] TAK875; mean, SEM, n=4; read-out: GPR40 Residence time, τ
T1 construct: expressed in transfected cells; host or cells: HEK293 (membranes)
Method: The association and dissociation rates of unlabeled compounds are quantified using the method described by Motulsky, H. J. and L. C. Mahan (1984), “The kinetics of competitive radioligand binding predicted by the law of mass action” Mol Pharm 25(1): 1-9. Human GPR40 membranes are incubated at various time points with 6-8 nM [^3H] TAK875 in the absence or presence of 1× Ki, 3× Ki, or 10× Ki unlabeled compound. Separation of bound and free radioligand is performed using rapid-wash filtration onto glass fiber filters and counted in a liquid scintillation counter. Rates are calculated by fitting the data to the kinetics of competitive binding model in GraphPad Prism 6, version 6.03 for Windows, GraphPad Software, La Jolla Calif. USA, www.graphpad.com.

PPARδ = target: T2, PPARδ (Homo sapiens, UniProt Q03181); experiment: Ga14 PPARδ reporter functional assay in CV1 cells; type: cell-based; conditions: 24 hours incubation, luciferase
T2 construct: expressed in transfected cells; host or cells: CV1 (African green monkey kidney)
T2 sequence (Q03181 211-439 limits assumed): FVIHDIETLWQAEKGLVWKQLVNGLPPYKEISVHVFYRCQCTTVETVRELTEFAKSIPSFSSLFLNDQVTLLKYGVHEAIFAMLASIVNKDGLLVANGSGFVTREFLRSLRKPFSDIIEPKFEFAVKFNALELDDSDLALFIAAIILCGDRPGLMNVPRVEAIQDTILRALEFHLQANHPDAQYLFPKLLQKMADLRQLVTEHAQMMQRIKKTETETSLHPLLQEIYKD
Text: (§1) Because GPR40 is known to be activated by ligands to PPARγ, exemplified compounds are examined in Ga14 PPARα, Ga14 PPARδ, and PPARγ reporter assays to determine the selectivity of exemplified compounds. CV1 cells, which are derived from the renal tissue of an African green monkey, are transfected with various receptor and reporter plasmids using Fugene. For the Ga14 PPARα and PPARδ assays, a reporter plasmid containing five tandem copies of the yeast transcription protein Ga14 response element, cloned upstream of a firefly luciferase gene driven by the major late promoter of adenovirus, is transfected together with a Simian Virus 40 (SV40) driven plasmid constitutively expressing a hybrid protein containing the Ga14 DNA binding domain (DBD), and either the PPARα or PPARδ ligand binding domain. […] After 24 hours incubation with compounds, cells are lysed and luciferase activity is determined as a measure of receptor activation by luminescence. […] The maximum percent stimulation is determined versus maximum stimulation obtained with 10 μM of an appropriated PPAR agonist reference compound, 2-methyl-2-(4-{2-methyl-3-[2-(phenylcarbonyl)-4-(trifluoromethoxy)phenoxy]propoxy}phenoxy)propanoic acid. […]

hGPR40 [1] = target: T3, hGPR40 (Homo sapiens, UniProt O14842); experiment: Human beta-arrestin agonist assay with 1% FBS (hEK293-hFFAR1 cells); type: cell-based; parameters: host or cells: HEK293 (hEK293-hFFAR1); conditions: n=2
Text: (§2) Human embryonic kidney (hEK293)-hFFAR1 cells are purchased from DiscoveRx. Human osteosarcoma (U205) cells expressing mFFAR1 are developed by DiscoveRX. These cells co-express the Prolink (PK)-tagged GPR40 and the Enzyme Acceptor (EA)-tagged beta-arrestin fusion proteins. If activation of the GPR40 stimulates beta-arrestin recruitment, it would force complementation of the beta galactosidase (B-gal) enzyme fragments, forming a B-gal enzyme that generates a chemiluminescent signal using the DiscoveRx PathHunter detection kit. Cells are incubated overnight at 5,000 cells/well in 384 well plates in culture media containing 1% FBS (fetal bovine serum). Serial diluted compounds in DMSO (2× dilutions to generate 20 concentrations) are step down diluted in culture media containing 1% FBS (fetal bovine serum) and added to cells with a final top concentration starting of 100 μM. After addition of compounds, cells are incubated for 90 min at 37° C. in 5% CO2 incubator, and DiscoveRX kit detection reagents are added. Measurement of the chemiluminescent signal is ascertained with the Envision reader, after a 1-hour incubation at room temperature. Data are fit to a 4 parameter-fit logistics to determine EC50 values, % activity is measured versus maximum response to an internal standard GPR40 agonist standard, TAK875, at 1 μM.
Target sequence in this assay (O14842 whole entry, the tested form may be a part): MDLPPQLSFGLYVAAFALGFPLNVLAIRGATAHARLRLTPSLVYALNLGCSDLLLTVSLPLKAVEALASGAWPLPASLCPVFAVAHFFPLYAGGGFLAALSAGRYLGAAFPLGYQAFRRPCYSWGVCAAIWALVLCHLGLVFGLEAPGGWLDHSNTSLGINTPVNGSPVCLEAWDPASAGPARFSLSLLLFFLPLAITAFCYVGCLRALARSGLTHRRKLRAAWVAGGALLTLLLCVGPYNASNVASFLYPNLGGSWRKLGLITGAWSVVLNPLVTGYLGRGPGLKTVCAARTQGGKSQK
Target sequence in this assay (P32121 whole entry partner, the tested form may be a part): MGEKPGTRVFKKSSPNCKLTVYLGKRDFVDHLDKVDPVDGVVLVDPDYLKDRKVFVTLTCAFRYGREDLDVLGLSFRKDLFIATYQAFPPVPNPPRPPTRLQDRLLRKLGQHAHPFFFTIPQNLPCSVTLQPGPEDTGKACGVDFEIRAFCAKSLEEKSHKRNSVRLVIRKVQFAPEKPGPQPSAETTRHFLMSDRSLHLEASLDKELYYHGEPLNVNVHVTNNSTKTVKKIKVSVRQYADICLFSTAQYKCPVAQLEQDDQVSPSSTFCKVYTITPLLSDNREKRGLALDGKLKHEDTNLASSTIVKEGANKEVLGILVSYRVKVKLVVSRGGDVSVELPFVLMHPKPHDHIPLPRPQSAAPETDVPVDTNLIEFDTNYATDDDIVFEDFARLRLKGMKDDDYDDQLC

PPAR = PPAR α, δ, and γ functional assays (overall statement); type: cell-based; conditions: PPARα, PPARδ and PPARγ reporter assays; efficacy of <20% is considered negative
Text: as §1

human GPR40 (hGPR40) = target: T4, human GPR40 (hGPR40) (Homo sapiens, UniProt O14842); experiment: Radioligand competition binding assay with [3H]-TAK-875, HEK293 membranes; conditions: 5 nM [3H]-TAK-875; Cheng-Prusoff; mean, SEM
T4 construct: expressed in transfected cells; host or cells: HEK293 (membranes)
Text: Competition curves are plotted as the percent specific inhibition versus concentration of compound and analyzed using a four parameter nonlinear regression fit with variable slope. […] See Cheng, Y. and Prusoff, W. H. (1973) “Relationship between the inhibition constant (Ki) and the concentration of inhibitor which causes 50 percent inhibition (IC50) of an enzymatic reaction”, Biochem Pharmacol 22(23):3099-108.

PPARα = target: T5, PPARα (Homo sapiens, UniProt Q07869); experiment: Ga14 PPARα reporter functional assay in CV1 cells; type: cell-based; conditions: 24 hours incubation, luciferase
T5 construct: expressed in transfected cells; host or cells: CV1 (African green monkey kidney)
T5 sequence (Q07869 239-466 limits assumed): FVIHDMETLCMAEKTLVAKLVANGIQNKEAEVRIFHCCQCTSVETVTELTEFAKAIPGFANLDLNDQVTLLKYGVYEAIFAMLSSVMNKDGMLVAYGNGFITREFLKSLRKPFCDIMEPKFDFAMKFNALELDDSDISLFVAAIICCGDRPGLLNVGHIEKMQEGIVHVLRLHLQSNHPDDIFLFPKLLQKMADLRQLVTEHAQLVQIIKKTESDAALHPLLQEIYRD
Text: as §1

PPARγ = target: T6, PPARγ (Homo sapiens, UniProt P37231); experiment: PPARγ reporter functional assay in CV1 cells; type: cell-based; conditions: PPARγ and RXRα, 24 hours incubation, luciferase
T6 construct: expressed in transfected cells; host or cells: CV1 (African green monkey kidney)
T6 sequence (P37231 1-505): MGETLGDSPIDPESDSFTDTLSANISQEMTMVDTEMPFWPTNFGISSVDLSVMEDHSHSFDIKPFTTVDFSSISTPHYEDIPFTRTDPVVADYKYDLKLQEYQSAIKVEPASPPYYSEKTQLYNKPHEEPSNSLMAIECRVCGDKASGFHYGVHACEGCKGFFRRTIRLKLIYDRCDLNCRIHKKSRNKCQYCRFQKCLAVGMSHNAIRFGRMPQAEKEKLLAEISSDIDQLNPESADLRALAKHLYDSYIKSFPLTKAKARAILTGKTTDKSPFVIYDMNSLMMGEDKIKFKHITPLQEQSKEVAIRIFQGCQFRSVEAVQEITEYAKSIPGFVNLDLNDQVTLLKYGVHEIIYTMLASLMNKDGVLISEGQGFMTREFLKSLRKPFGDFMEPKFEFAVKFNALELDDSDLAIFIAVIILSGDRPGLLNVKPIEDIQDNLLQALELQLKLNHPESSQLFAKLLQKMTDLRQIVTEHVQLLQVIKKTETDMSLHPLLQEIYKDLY
T6 sequence (P19793 1-462 partner): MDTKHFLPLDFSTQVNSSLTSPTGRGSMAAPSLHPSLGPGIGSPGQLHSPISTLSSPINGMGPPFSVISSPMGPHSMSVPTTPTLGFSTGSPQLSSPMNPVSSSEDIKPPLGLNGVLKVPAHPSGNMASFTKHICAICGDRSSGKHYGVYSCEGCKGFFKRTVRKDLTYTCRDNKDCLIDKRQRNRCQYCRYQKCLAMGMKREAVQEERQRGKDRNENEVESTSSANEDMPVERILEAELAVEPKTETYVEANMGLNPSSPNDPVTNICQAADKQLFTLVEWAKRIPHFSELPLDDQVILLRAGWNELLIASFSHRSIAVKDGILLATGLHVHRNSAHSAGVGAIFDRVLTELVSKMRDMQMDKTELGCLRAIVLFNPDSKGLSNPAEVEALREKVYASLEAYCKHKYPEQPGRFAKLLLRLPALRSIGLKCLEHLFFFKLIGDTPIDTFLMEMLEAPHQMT
Text: as §1

hGPR40 [2] = target: T3, hGPR40; experiment: Calcium Flux Primary Assay (FLIPR); type: cell-based; parameters: expressed in transfected cells; host or cells: HEK293; conditions: mean, SEM
Method: HEK293 cells over expressing the human GPR40 cDNA maintained in Dulbecco's modified Eagle's medium with F12 medium in 3:1 ratio supplemented with 10% FBS and 800 μg/ml geneticin at 37° C. and 5% CO2 are employed for the study. Agonist assays are performed using a Calcium 4 Dye assay kit (Molecular Devices) in the presence or absence of 0.1% fatty acid free BSA in the assay buffer (1×HBSS (Hank's Balanced Salt Solution) & 20 mM HEPES (4-(2-hydroxyethyl)-1-piperazineethanesulfonic acid). Receptor activation is measured as an increase in intracellular calcium using the Fluorometric Imaging Plate Reader (FLIPR). Maximum change in fluorescence over the base line is used to determine the agonist response. The EC50 value of the compound is calculated using Excel Fit software (version 4; IDBS) by plotting concentration vs relative fluorescence units (RFUs). […] (Mean±SEM; SEM=standard error of the mean.)
Target sequence in this assay (O14842 whole entry, the tested form may be a part): as the sequence (O14842 whole entry, the tested form may be a part) above

mGPR40 = mGPR40 (Mus musculus, UniProt Q76JU9); experiment: Mouse beta-arrestin agonist assay with 1% FBS (U205 cells expressing mFFAR1); type: cell-based; conditions: n=3
Text: as §2

[3] = versus maximum response to TAK875 at 1 μM

Chain of mGPR40 (Q76JU9 whole entry): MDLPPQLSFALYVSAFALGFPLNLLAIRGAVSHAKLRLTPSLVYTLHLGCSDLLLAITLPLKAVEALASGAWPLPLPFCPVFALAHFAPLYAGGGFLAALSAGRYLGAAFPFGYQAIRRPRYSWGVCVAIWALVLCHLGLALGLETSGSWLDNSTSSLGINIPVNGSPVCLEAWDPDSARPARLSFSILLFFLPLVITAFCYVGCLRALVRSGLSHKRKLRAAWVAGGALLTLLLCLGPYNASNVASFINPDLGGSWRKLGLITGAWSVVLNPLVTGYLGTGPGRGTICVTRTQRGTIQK
Chain of mGPR40 (P32121 whole entry partner): as the sequence (P32121 whole entry partner, the tested form may be a part) above
T4 sequence (O14842 whole entry): as the sequence (O14842 whole entry, the tested form may be a part) above
T1 sequence (O14842 whole entry): as the sequence (O14842 whole entry, the tested form may be a part) above

residence time (Human GPR40 membranes): 169 min
pEC50 (PPARδ): 5.40
pEC50 (hGPR40 [1]; 1% FBS, 90 min, mean, SEM, read-out: hGPR40 b-arrestin EC50): 7.51
% stimulation max (FA), hGPR40 b-arrestin (hGPR40 [1]; [3]): 170%
pKi (human GPR40 (hGPR40)): 7.80
pEC50 (PPARα): < 5.00
pEC50 (PPARγ): 5.65
pEC50 (hGPR40 [2]; HEK293 cells over expressing human GPR40): 6.61
efficacy (hGPR40 [2]; maximal response compared to natural ligand linoleic acid): 78.7%
pEC50 (mGPR40; 1% FBS, 90 min, mean, SEM, read-out: mGPR40 b-arrestin EC50): 8.31
% stimulation max (FA), mGPR40 b-arrestin (mGPR40; [3]): 149%
SMILES: CC#C[C@@H](CC(=O)O)c1ccc(OCc2cc(-c3c(C)cc(OC)cc3C)c3nc(C(C)C)nn3c2)cc1 [Example 1, (S)-3-{4-[2-Isopropyl-8-(4-methoxy-2,6-dimethyl-phenyl)-[1,2,4]triazolo[1,5-a]pyridin-6-ylmethoxy]-phenyl}-hex-4-ynoic acid]
PPAR activity / efficacy (in words) (PPAR): weak PPAR activity
